Measurements as given in patent US8853406B2, “Substituted phenylenediamines as inhibitors of the interaction between MDM2 and P53” (Janssen Pharmaceutica NV, priority 2007, dated 2014).

How the values were obtained:
Male NMRI mice = assay: Ro-4-1284 antagonism in mice (drug induced neurological effects); format: in vivo; conditions: Ro-4-1284 antagonism in mice
Experimental: The test is a modification of a procedure described by Colpaert et al. (1975).^3 Male NMRI mice (22±3 g) were housed in macrolon observation cages (L×W×H: 11×12×17 cm; n=3 per cage). At the start of the experiments immediately before test compound administration, the initial body temperature of the mice was measured with a precision of 0.1° C. by inserting the thermo-sensitive probe (1.0 mm diameter) of an electric thermometer (Comark) to a constant depth of 3 cm into the esophagus until a stable reading was obtained. The right eye pupil diameter was measured with a graduated microscope and expressed in 1/24 mm units. Fifteen min after test compound administration, the mice were challenged with Ro-4-1284 (10 mg/kg, s.c.). Ro-4-1284 is a reserpine-like vesicular monoamine transport (VMAT-2) inhibitor, which rapidly depletes secretory vesicles.^3,4 Fifteen, 30 and 60 min after challenge, the mice were scored for palpebral opening (0, 1, 2, 3, 4, 5) and locomotor activity (−1, 0, 1, 2, 3). At the 60-min interval, immediately after the scoring of overt behavior, the right eye pupil diameter and the esophageal temperature were measured again. Abnormal phenomena such as intensive sniffing, chewing, rearing, hyperemia, piloerection, salivation, tremors, convulsions and death were noted (the latter phenomena were also noted when occurring before Ro-4-1284 administration). Criteria for drug-induced effects: reversal of ptosis: palpebral opening score >1 at 15, 30 or 60 min (2.7, 0.5 and 0% false positive controls, respectively; n>350); induction of prostration: score −1 for locomotion at 15, 30 or 60 min (never observed in controls); reversal of hypomotility: score >0 for locomotion at 15, 30 and 60 min (2.2, 0.8 and 0% false positive controls, respectively); reversal of miosis: pupil diameter >5 units at 60 min (0.8% false positives); potentiation of hypothermia: temperature decrease (over the 1-h time interval)>9.0° C. (1.4% false positives); reversal of hypothermia: temperature decrease <3.0° C. (1.8% false positives).
According to the standard procedure, R0-4-1284 is injected 15 min following subcutaneous or oral administration and observations start 15 min later. Doses are initially given to 3 animals. When at least 2 out of the 3 animals show activity for at least one of the observations, the compound is considered active.

p53 in A2780 cells = assay: p53 ELISA in A2780 cells (capacity to preserve p53); format: cell-based; conditions: lowest dose giving at least 140% of the p53 value of the control, 16 hours
Experimental: The capacity of the compounds to preserve p53 in A2780 cells was measured with the p53 enzyme linked immunosorbent assay. The p53 assay is a “sandwich” enzyme immunoassay employing two polyclonal antibodies. A polyclonal antibody, specific for the p53 protein, has been immobilized onto the surface of the plastic wells. Any p53 present in the sample to be assayed will bind to the capture antibody. The biotinylated detector polyclonal antibody also recognizes p53 protein, and will bind to any p53, which has been retained by the capture antibody. The detector antibody, in turn, is bond by horseradish peroxidase-conjugated streptavidin. The horseradish peroxidase catalyses the conversion of the chromogenic substrate o-phenylene diamine, the intensity of which is proportional to the amount of p53 protein bond to the plate. The colored reaction product is quantified using a spectrophotometer. Quantitation is achieved by the construction of a standard curve using known concentrations of purified recombinant HIS tagged p53 protein (see example C.1.).
A2780 cells (ATCC) were cultivated in RPMI 1640 supplemented with 10% fetal calf serum (FCS), 2 mM L-glutamine and gentamycin at 37° C. in a humidified incubator with 5% CO2.
A2780 cells were seeded at 20.000 cells per well in a 96 well plate, cultured for 24 hours and treated with compound for 16 hours at 37° C. in a humidified incubator. After incubation, the cells were washed once with phosphate-buffered saline and 30 μl, per well, low salt RIPA buffer (20 mM tris, pH7.0, 0.5 mM EDTA, 1% Nonidet P40, 0.5% DOC, 0.05% SDS, 1 mM PMSF, 1 μg/ml aprotinin and 0.5 μ/ml leupeptin) was added. Plates were placed on ice for 30 minutes to complete the lysis. p53 protein was detected in de lysates by using the sandwich ELISA, described below.
High binding polystyrene EIA/RIA 96 well plates (Costar 9018) were coated with the capture antibody pAb1801 (Abcam ab28-100) at a concentration of 1 μg/ml in coating buffer (0.1 M NaHCO3 pH8.2), 50 μl per well. The antibody was allowed to adhere overnight at 4° C. Coated plates were washed once with phosphate-buffered saline (PBS)/0.05% Tween 20 and 300 μl of blocking buffer (PBS, 1% bovine serum albumins (BSA)) was added, for an incubation period of 2 hours at room temperature. Dilutions of purified recombinant HIS tagged p53 protein, ranging from 3-200 ng/ml, were made in blocking buffer and used as standards.
Plates were washed twice with PBS/0.05% Tween 20 and blocking buffer or standards were added at 80 μl/well. To the standards, 20 μl of lysis buffer was added. The samples were added to the other wells at 20 μl lysate/well. After an overnight incubation at 4° C., plates were washed twice with PBS/0.05% Tween 20. Aliquots of 100 μl secondary polyclonal antibody p53(FL-393) (Tebubio, sc-6243) at a concentration of 1 μg/ml in blocking buffer were added to each well and allowed to adhere for 2 hours at room temperature. Plates were washed three times with PBS/0.05% Tween 20. Detection antibody anti-rabbit HRP (sc-2004, Tebubio) at 0.04 μg/ml in PBS/1% BSA was added and incubated for 1 hour at room temperature. Plates were washed three times with PBS/0.05% Tween 20 and 100 μl of substrate buffer was added (substrate buffer was prepared shortly before use by adding 1 tablet of 10 mg o-phenylene diamine (OPD) from Sigma and 125 μl 3% H2O2 to 25 ml OPD buffer: 35 mM citric acid, 66 mM Na2HPO4, pH5.6). After 5 to 10 minutes, colour reaction was stopped by adding 50 μl stop buffer (1 M H2SO4) per well. The absorbance at dual wavelengths of 490/655 nm was measured using a Biorad micro plate reader and the results were then analyzed.
For each experiment, controls (containing no drug) and a blank incubation (containing no cells or drugs) were run in parallel. The blank value was subtracted from all control and sample values. For each sample, the value of p53 (in absorbance units) was expressed as the percentage of the value for p53 present in the control. […]

p53 in U87MG cells = assay: U87MG p53-elisa as described in EP1809622; format: cell-based; conditions: lowest dose giving at least 140% of the p53 value of the control

Structure (SMILES) | drug induced neurological side effects (Male NMRI mice) | A2780 p53-elisa LAD (p53 in A2780 cells) | U87MG p53-elisa LAD (p53 in U87MG cells)
Cc1cc(Nc2ccncc2)ccc1NCCc1c[nH]c2ccccc12 | yes | 3.00E-06 | 1.00E-05
c1ccc2c(CCNc3ccc(Nc4ccncc4)cc3)c[nH]c2c1 | yes | 1.00E-06 | 3.00E-06
Cc1cccc2c(CCNc3ccc(Nc4ccncc4)cc3)c[nH]c12 | yes | 3.00E-07 | 1.00E-06
